Measured values taken from ChEMBL document CHEMBL1123097, “Structure-activity relationship in PAF-acether. 2. rac-1-O-Octadecyl-2-O-acetyl-3-O-[gamma-(dimethylamino)propyl]glycerol ” (J Med Chem, 1985).

Key:
Cavia porcellus [1] = assay: Compound was evaluated in anesthetized guinea pigs, for the percentage drop in platelet counts between 2 min before and 1 min after injection at 520ng/kg; format: functional
Oryctolagus cuniculus [2] = species on record: Oryctolagus cuniculus; assay: In vitro platelet aggregating activity in washed rabbit platelets; format: functional
Cavia porcellus [3] = assay: Compound was evaluated in anesthetized guinea pigs, for the percentage drop in platelet counts between 2 min before and 1 min after injection at 33 ng/kg; format: functional
Cavia porcellus [4] = assay: Compound was evaluated in anesthetized guinea pigs, for the percentage drop in platelet counts between 2 min before and 1 min after injection at 66 ng/kg; format: functional
Oryctolagus cuniculus [5] = species on record: Oryctolagus cuniculus; assay: In vitro platelet aggregating activity in washed rabbit platelets; No lysis observed; format: functional
Cavia porcellus [6] = assay: Compound was evaluated in anesthetized guinea pigs, for the percentage decrease of bronchoconstrictive activity; format: functional, Lung; set-up: scale not given: the % may be the effect or the level left
Cavia porcellus [7] = assay: Compound was evaluated in anesthetized guinea pigs, for the percentage drop in platelet counts between 2 min before and 1 min after injection; format: functional

SMILES: CCCCCCCCCCCCCCCCCCOCC(O)COCCC[N+](C)(C)C.[OH-] (stereo not given)
- Aggregation (Cavia porcellus [1]): 100%
- EC50 (Oryctolagus cuniculus [2]): > 4000 nM

SMILES: CCCCCCCCCCCCCCCCCCOC[C@H](COP(=O)([O-])OCC[N+](C)(C)C)OC(C)=O
- EC50 (Oryctolagus cuniculus [2]): 0.057 nM
- Aggregation (Cavia porcellus [3]): 48%

SMILES: CCCCCCCCCCCCCCCCCCOCC(COCCCN(C)C)OC(C)=O.Cl (stereo not given)
- Aggregation (Cavia porcellus [4]): 0%
- EC50 (Oryctolagus cuniculus [5]): 170 nM
- Aggregation (Cavia porcellus [3]): 0%

SMILES: CCCCCCCCCCCCCCCCCCOCC(COP(=O)([O-])OCC[N+](C)(C)C)OC(C)=O (racemic)
- EC50 (Oryctolagus cuniculus [2]): 0.22 nM
- Activity (Cavia porcellus [6]): 100%
- Aggregation (Cavia porcellus [7]): 0%
